The OligoGym collection
HELM strings list units from the 5' end as sugar, base in round brackets, then linkage (d deoxyribose, r ribose, m 2'-O-methyl, p phosphodiester). Strings are as the collection lists them; they lack the last nucleoside at the 3' end of the tested compound. [moe] = 2'-O-(2-methoxyethyl) (MOE); [sp] = phosphorothioate linkage; [m5C] = 5-methylcytosine

Biological target: ATXN2
Assay: mouse, dose not given
Details: ASO

Substance | 3 h FOB score [score 0-7]
RNA1{[moe](A)[sp].[moe]([m5C])p.[moe](T)p.[moe](T)p.[moe](T)[sp].d(T)[sp].d([m5C])[sp].d(T)[sp].d([m5C])[sp].d(A)[sp].d(T)[sp].d(G)[sp].d(T)[sp].[moe](G)p.[moe]([m5C])p.[moe](G)[sp].[moe](G)}$$$$ (last 3' nucleoside missing) | 3.25
RNA1{[moe](T)[sp].[moe](T)p.[moe]([m5C])p.[moe](T)p.[moe](G)[sp].d(T)[sp].d(A)[sp].d([m5C])[sp].d(T)[sp].d(T)[sp].d(T)[sp].d(T)[sp].d([m5C])[sp].[moe](T)p.[moe]([m5C])p.[moe](A)[sp].[moe](T)}$$$$ (last 3' nucleoside missing) | 2.5
RNA1{[moe]([m5C])[sp].[moe](T)p.[moe]([m5C])p.[moe](T)p.[moe](A)p.d(T)[sp].d(T)[sp].d(T)[sp].d([m5C])[sp].d(T)[sp].d(T)[sp].d(T)[sp].d(G)[sp].d(T)[sp].d([m5C])[sp].[moe]([m5C])p.[moe](A)p.[moe](G)[sp].[moe](G)}$$$$ (last 3' nucleoside missing) | 3.5
RNA1{[moe](T)[sp].[moe](G)[sp].[moe]([m5C])[sp].[moe](A)[sp].[moe](T)[sp].d(A)[sp].d(G)[sp].d(A)[sp].d(T)[sp].d(T)[sp].d([m5C])[sp].d([m5C])[sp].d(A)[sp].d(T)[sp].d([m5C])[sp].[moe](A)[sp].[moe](A)[sp].[moe](A)[sp].[moe](A)}$$$$ (last 3' nucleoside missing) | 7
RNA1{[moe](A)[sp].[moe](T)p.[moe](A)p.[moe]([m5C])p.[moe](G)p.d([m5C])[sp].d(G)[sp].d(G)[sp].d(T)[sp].d(G)[sp].d(A)[sp].d(A)[sp].d(T)[sp].d(T)[sp].d([m5C])[sp].[moe](T)p.[moe](G)p.[moe](T)[sp].[moe]([m5C])}$$$$ (last 3' nucleoside missing) | 1
RNA1{[moe](A)[sp].[moe]([m5C])p.[moe](T)p.[moe](T)p.d(T)[sp].d(T)[sp].d([m5C])[sp].d(T)[sp].d([m5C])[sp].d(A)[sp].d(T)[sp].d(G)[sp].d(T)[sp].d(G)[sp].[moe]([m5C])p.[moe](G)p.[moe](G)p.[moe]([m5C])[sp].[moe](A)}$$$$ (last 3' nucleoside missing) | 2.5
RNA1{[moe]([m5C])[sp].[moe](A)p.[moe](G)p.[moe]([m5C])p.[moe](A)p.d(T)[sp].d(G)[sp].d(A)[sp].d(T)[sp].d([m5C])[sp].d(T)[sp].d(T)[sp].d(G)[sp].d(T)[sp].d(G)[sp].[moe](T)p.[moe](A)p.[moe](T)[sp].[moe](A)}$$$$ (last 3' nucleoside missing) | 2.25
RNA1{[moe](G)[sp].[moe]([m5C])p.[moe](T)p.[moe](T)p.[moe](A)p.[moe](G)p.d(A)[sp].d(G)[sp].d(T)[sp].d(T)[sp].d(T)[sp].d(T)[sp].d(T)[sp].d(G)[sp].d([m5C])[sp].d([m5C])[sp].[moe](T)p.[moe](T)[sp].[moe]([m5C])}$$$$ (last 3' nucleoside missing) | 5
RNA1{[moe](T)[sp].[moe]([m5C])p.[moe](T)p.[moe]([m5C])p.[moe]([m5C])p.d(A)[sp].d(T)[sp].d(T)[sp].d(A)[sp].d(T)[sp].d(T)[sp].d(T)[sp].d([m5C])[sp].d(T)[sp].d(T)[sp].[moe]([m5C])p.[moe](A)p.[moe]([m5C])[sp].[moe](G)}$$$$ (last 3' nucleoside missing) | 0.75
RNA1{[moe](G)[sp].[moe](A)p.[moe](A)p.[moe]([m5C])p.[moe]([m5C])p.d(A)[sp].d(G)[sp].d(A)[sp].d(A)[sp].d(T)[sp].d(T)[sp].d([m5C])[sp].d(G)[sp].d(G)[sp].d(G)[sp].[moe](T)p.[moe](T)p.[moe](G)[sp].[moe](A)}$$$$ (last 3' nucleoside missing) | 3.75
RNA1{[moe](A)[sp].[moe]([m5C])p.[moe](T)p.[moe](T)p.[moe](G)p.d(T)[sp].d(A)[sp].d([m5C])[sp].d(T)[sp].d(T)[sp].d([m5C])[sp].d(A)[sp].d([m5C])[sp].d(A)[sp].d(T)[sp].[moe](T)p.[moe](T)p.[moe](G)[sp].[moe](G)}$$$$ (last 3' nucleoside missing) | 1
RNA1{[moe](G)[sp].[moe](T)p.[moe](A)p.[moe]([m5C])p.[moe](T)[sp].d(T)[sp].d(T)[sp].d(T)[sp].d([m5C])[sp].d(T)[sp].d([m5C])[sp].d(A)[sp].d(T)[sp].[moe](G)p.[moe](T)p.[moe](G)[sp].[moe]([m5C])}$$$$ (last 3' nucleoside missing) | 1.25
RNA1{[moe](T)[sp].[moe](T)p.[moe](T)p.[moe](T)p.[moe](T)p.d(G)[sp].d([m5C])[sp].d(T)[sp].d(T)[sp].d(A)[sp].d(T)[sp].d(T)[sp].d(A)[sp].d(T)[sp].d(T)[sp].[moe]([m5C])p.[moe](T)p.[moe]([m5C])[sp].[moe](A)}$$$$ (last 3' nucleoside missing) | 0
RNA1{[moe](T)[sp].[moe]([m5C])p.[moe](T)p.[moe](T)p.[moe](G)p.d(T)[sp].d(T)[sp].d(G)[sp].d(T)[sp].d(T)[sp].d(G)[sp].d(T)[sp].d(T)[sp].d(T)[sp].d(A)[sp].[moe]([m5C])p.[moe](A)p.[moe](T)[sp].[moe](T)}$$$$ (last 3' nucleoside missing) | 3
RNA1{[moe](G)[sp].[moe](T)p.[moe](T)p.[moe]([m5C])p.[moe](A)p.d(T)[sp].d(T)[sp].d([m5C])[sp].d([m5C])[sp].d(A)[sp].d(G)[sp].d(A)[sp].d(T)[sp].d(T)[sp].d(T)[sp].[moe]([m5C])p.[moe](A)p.[moe]([m5C])[sp].[moe](T)}$$$$ (last 3' nucleoside missing) | 4
RNA1{[moe](T)[sp].[moe](G)p.[moe](G)p.[moe](T)p.d(G)[sp].d(G)[sp].d(T)[sp].d(G)[sp].d(T)[sp].d(G)[sp].d([m5C])[sp].d(G)[sp].d([m5C])[sp].d(A)[sp].[moe](T)p.[moe](G)p.[moe](T)p.[moe](A)[sp].[moe](G)}$$$$ (last 3' nucleoside missing) | 6.75
RNA1{[moe]([m5C])[sp].[moe](A)p.[moe](G)p.[moe](T)p.[moe](G)p.d(T)[sp].d(T)[sp].d(G)[sp].d([m5C])[sp].d(A)[sp].d([m5C])[sp].d(A)[sp].d(T)[sp].d(A)[sp].d(G)[sp].[moe](G)p.[moe](T)p.[moe](T)[sp].[moe](A)}$$$$ (last 3' nucleoside missing) | 5
RNA1{[moe](A)[sp].[moe](A)p.[moe]([m5C])p.[moe]([m5C])p.[moe](A)p.d([m5C])[sp].d(T)[sp].d(G)[sp].d(A)[sp].d(T)[sp].d(T)[sp].d(T)[sp].d(A)[sp].d(T)[sp].d(A)[sp].[moe]([m5C])p.[moe](A)p.[moe]([m5C])[sp].[moe](T)}$$$$ (last 3' nucleoside missing) | 2.5
RNA1{[moe](T)[sp].[moe](T)p.[moe](T)p.[moe](G)p.[moe](A)p.d(A)[sp].d(T)[sp].d(T)[sp].d(A)[sp].d([m5C])[sp].d(A)[sp].d(A)[sp].d(T)[sp].d(G)[sp].d([m5C])[sp].[moe](G)p.[moe](G)p.[moe](T)[sp].[moe](A)}$$$$ (last 3' nucleoside missing) | 3.5
RNA1{[moe](G)[sp].[moe](T)p.[moe](T)p.[moe](T)p.[moe](T)p.d(G)[sp].d(T)[sp].d(T)[sp].d(T)[sp].d(A)[sp].d(A)[sp].d(T)[sp].d([m5C])[sp].d(A)[sp].d([m5C])[sp].[moe](A)p.[moe](G)p.[moe](T)[sp].[moe](T)}$$$$ (last 3' nucleoside missing) | 2
RNA1{[moe](T)[sp].[moe]([m5C])p.[moe](A)p.[moe](T)p.[moe](T)p.d(T)[sp].d(T)[sp].d(A)[sp].d(T)[sp].d(T)[sp].d([m5C])[sp].d(T)[sp].d(G)[sp].d([m5C])[sp].d(T)[sp].[moe](T)p.[moe](T)p.[moe](G)[sp].[moe]([m5C])}$$$$ (last 3' nucleoside missing) | 2
RNA1{[moe]([m5C])[sp].[moe](G)p.[moe](T)p.[moe](G)p.[moe](G)p.d(T)[sp].d(G)[sp].d(G)[sp].d(T)[sp].d(G)[sp].d(T)[sp].d(G)[sp].d([m5C])[sp].d(G)[sp].d([m5C])[sp].[moe](A)p.[moe](T)p.[moe](G)[sp].[moe](T)}$$$$ (last 3' nucleoside missing) | 6.25
RNA1{[moe](A)[sp].[moe](G)p.[moe](T)p.[moe](A)p.[moe](A)p.d(A)[sp].d(A)[sp].d(G)[sp].d(T)[sp].d(T)[sp].d(T)[sp].d(T)[sp].d(T)[sp].d([m5C])[sp].d([m5C])[sp].[moe]([m5C])p.[moe](T)p.[moe](T)[sp].[moe](A)}$$$$ (last 3' nucleoside missing) | 3.25
RNA1{[moe](T)[sp].[moe](G)p.[moe](G)p.[moe](T)p.[moe](G)p.d(G)[sp].d(T)[sp].d(G)[sp].d(T)[sp].d(G)[sp].d([m5C])[sp].d(G)[sp].d([m5C])[sp].d(A)[sp].d(T)[sp].[moe](G)p.[moe](T)p.[moe](A)[sp].[moe](G)}$$$$ (last 3' nucleoside missing) | 6.5
RNA1{[moe](G)[sp].[moe](G)p.[moe](T)p.[moe](A)p.[moe](A)p.d([m5C])[sp].d(A)[sp].d(G)[sp].d([m5C])[sp].d(T)[sp].d([m5C])[sp].d(T)[sp].d(G)[sp].d(T)[sp].d(T)[sp].[moe]([m5C])p.[moe](G)p.[moe](A)[sp].[moe](T)}$$$$ (last 3' nucleoside missing) | 7
RNA1{[moe](G)[sp].[moe](A)p.[moe](A)p.[moe]([m5C])p.[moe](A)p.d([m5C])[sp].d([m5C])[sp].d(A)[sp].d(T)[sp].d(G)[sp].d(A)[sp].d([m5C])[sp].d(T)[sp].d(G)[sp].d(A)[sp].[moe](T)p.[moe]([m5C])p.[moe]([m5C])[sp].[moe]([m5C])}$$$$ (last 3' nucleoside missing) | 4
